According to ChEMBL document CHEMBL3600281, “Synthesis and anticancer properties of new (dihydro)pyranonaphthoquinones and their epoxy analogs” (Bioorg Med Chem Lett, 2015):
pIC50: −log10 of the molar value. Calls of active or inactive are those of the source. No cut-off for these calls is given here.

Assays:
KB = assay: Cytotoxicity against human KB cells; format: functional, cell-based
HepG2 = assay: Cytotoxicity against human HepG2 cells; format: functional, cell-based
MCF7 = assay: Cytotoxicity against human MCF7 cells; format: functional, cell-based
[1] = Cytotoxicity against human Lu cells; format: functional, cell-based
Bacillus subtilis = assay: Antibacterial activity against Bacillus subtilis; format: functional, organism-based
Staphylococcus aureus = assay: Antibacterial activity against Staphylococcus aureus; format: functional, organism-based
Escherichia coli = assay: Antibacterial activity against Escherichia coli; format: functional, organism-based
Pseudomonas aeruginosa = assay: Antibacterial activity against Pseudomonas aeruginosa; format: functional, organism-based
Candida albicans = assay: Antifungal activity against Candida albicans; format: functional, organism-based

| Compound | pIC50 (KB) | pIC50 (HepG2) | pIC50 (MCF7) | pIC50 [1] | Activity (Bacillus subtilis) | Activity (Staphylococcus aureus) | Activity (Escherichia coli) | Activity (Pseudomonas aeruginosa) | Activity (Candida albicans) |
| --- | --- | --- | --- | --- | --- | --- | --- | --- | --- |
| CC(C)C1CC2=C(CO1)C(=O)c1ccccc1C2=O (centres undefined) | 4.76 | 4.70 | 4.58 | < 4.41 | inactive | inactive | inactive | inactive | inactive |
| CC1=CC2=C(CO1)C(=O)c1ccccc1C2=O | 5.25 | 5.17 | 4.53 | 4.88 | inactive | Active | inactive | inactive | inactive |
| O=C1C2=C(CC(c3ccccc3)OC2)C(=O)c2ccccc21 (centres undefined) | 4.79 | 4.73 | 4.57 | < 4.46 | inactive | inactive | inactive | inactive | inactive |
| CC1=C[C@@]23O[C@]2(CO1)C(=O)c1ccccc1C3=O | < 4.38 | < 4.38 | < 4.38 | < 4.38 | inactive | inactive | inactive | inactive | inactive |
| O=C1c2ccccc2C(=O)[C@]23COC(c4ccc(F)cc4)=C[C@]12O3 | < 4.51 | < 4.51 | < 4.51 | < 4.51 | inactive | inactive | inactive | inactive | inactive |
| O=C1c2ccccc2C(=O)[C@]23COC(c4ccccc4)=C[C@]12O3 | < 4.48 | < 4.48 | < 4.48 | < 4.48 | inactive | inactive | inactive | inactive | inactive |
| O=C1C2=C(CC(c3ccc(F)cc3)OC2)C(=O)c2ccccc21 (centres undefined) | 4.69 | 4.63 | < 4.49 | 4.66 | inactive | inactive | inactive | inactive | inactive |
| CC1CC2=C(CO1)C(=O)c1ccccc1C2=O (centres undefined) | 4.60 | 4.65 | 4.66 | 4.63 | inactive | inactive | inactive | inactive | inactive |
| O=C1c2ccccc2C(=O)[C@]23COC(c4ccc(F)cc4)C[C@]12O3 (some centres undefined) | < 4.51 | < 4.51 | < 4.51 | < 4.51 | inactive | inactive | inactive | inactive | inactive |
| O=C1C2=C(COC(c3ccccc3)=C2)C(=O)c2ccccc21 | 5.12 | 4.91 | < 4.46 | < 4.46 | inactive | inactive | inactive | inactive | inactive |
| Cc1c2ccncc2c(C)c2c1[nH]c1ccccc12 [ELLIPTECINE] |  | 5.89 | 5.74 | 5.66 |  |  |  |  |  |
| CC(C)C1=CC2=C(CO1)C(=O)c1ccccc1C2=O | 5.39 | 4.97 | 5.17 | 4.83 | inactive | Active | inactive | inactive | inactive |
| CC1C[C@@]23O[C@]2(CO1)C(=O)c1ccccc1C3=O (some centres undefined) | < 4.39 | < 4.39 | < 4.39 | < 4.39 | inactive | inactive | inactive | inactive | inactive |
| O=C1C2=C(COC(c3ccc(F)cc3)=C2)C(=O)c2ccccc21 | 5.82 | 5.44 | 4.89 | 4.94 | inactive | inactive | inactive | inactive | inactive |
| CC(C)C1C[C@@]23O[C@]2(CO1)C(=O)c1ccccc1C3=O (some centres undefined) | < 4.49 | < 4.49 | < 4.49 | < 4.49 | inactive | inactive | inactive | inactive | inactive |
